These results are taken from patent US4605655A, “Antipsychotic 1-fluorophenylbutyl-4-(2-pyrimidinyl)piperazine derivatives” (Bristol-Myers Company, priority 1984, dated 1986).

Entries after “also recorded” stand apart in the source; their conditions may differ. Read-outs that look alike come from different tables or passages of the source.

Data set [1] has as its target Muscarinic Cholinergic receptor. Description: Muscarinic cholinergic receptor binding. An excerpt:
(§1) As further indication of the psychotropic activity and specificity of the instant compounds, state of the art in vitro central nervous system receptor binding methodology can be employed. […] Inhibition of radiolabeled ligand binding to such specific high affinity sites is considered a measure of the compound's ability to affect corresponding central nervous system function or cause side effects in vivo. This principal is employed in the following assays which are given by way of example.
Cholinergic Yamamura, et al., Proc. Natn. Acad. Sci.

Another data set deals with opiate binding sites. Description: Opiate receptor binding. The conditions noted are these: in words. The source says:
(§2) As further indication of the psychotropic activity and specificity of the instant compounds, state of the art in vitro central nervous system receptor binding methodology can be employed. Certain compounds (commonly referred to as ligands) have been identified which preferentially bind to specific high affinity sites in brain tissue dealing with psychotropic activity or potential for side effects. Inhibition of radiolabeled ligand binding to such specific high affinity sites is considered a measure of the compound's ability to affect corresponding central nervous system function or cause side effects in vivo. This principal is employed in the following assays which are given by way of example.

Data set [2] has as its system norepinephrine lethality (α1-adrenergic blockade). Description: Inhibition of Norepinephrine (NE) Lethality. The data set is classed as in vivo. The settings on record: po; read-out: Inhibition of NE Lethality ED50 (alpha-block). The source says: 5. Inhibition of Norepinephrine Lethality--drug inhibition of the lethality of noradrenergic drug norepinephrine indicates α1 -adrenergic blockade.

Data set [3] has as its system serotonergic binding sites. Description: Serotonergic receptor binding. The settings on record: in words.
Description: as §2
Peroutka and Snyder, Molec. Pharmacol.,

The test system of the next data set is α1 receptor. Description: α1 binding vs. [^3 H]WB4101.
Description: as §1

Data set [4] concerns α2-adrenergic binding sites. Description: α2-adrenergic receptor binding. The settings on record: in words.
Description: as §2
Rosenblatt, et al., Brain Res., 160: 186
(1979); U'Prichard, et al., Science, 199:
197 (1978); U'Prichard, et al., Molec.

Data set [5] deals with apomorphine stereotypy (dopaminergic activity). Description: Inhibition of Apomorphine-Induced (APO) Stereotypy. The data set is classed as in vivo, rats. An excerpt:
2. Inhibition of Apomorphine-Induced (APO) Stereotype--an assessment of blockade of dopaminergic activity in rats as measured by attentuation of the behavioral syndrome caused by the dopamine agonist, apomorphine. cf. Janssen, et al, Arzneimittel. Forsch., 17, 841 (1966).

Data set [6] is described as follows: Catalepsy Reversal (neuroleptic-induced catalepsy). In kind it is in vivo, rat. The settings on record: for reversal of neuroleptic-induced catalepsy, potency relative to racemic material: compared with racemic BMY 14802; for Catalepsy Reversal ED50: p.o. An excerpt: 4. Catalepsy Reversal--measure of a drug's ability to reverse neuroleptic-induced catalepsy in the rat.

In data set [7] the test system is Dopamine receptor (striatal tissue). Description: Dopamine (DA) receptor binding vs. [^3 H]spiperone.
Description: as §1
Dopamine Burt, et al., Molec. Pharmacol., 12, 800

The next data set relates to GABA binding sites. Description: GABA receptor binding. The settings on record: in words.
Description: as §2

Data set [8] in a line: Conditioned Avoidance Response (CAR). The data set is classed as in vivo, trained fasted rats. An excerpt: 1. Conditioned Avoidance Response (CAR)--measure of a drug's tranquilizing activity as determined by its attenuation of avoidance response to electrical shock in trained fasted rats. cf: Albert, Pharmacologist, 4, 152 (1962); Wu, et al, J. Med. Chem., 12, 876-881 (1969).

A short description of a further data set: Catalepsy. In kind it is in vivo, rats. The conditions noted are these: for ED50: rat, in vivo, po.
Where [9] appears, read: in rats; compared with racemic BMY 14802; in words.
[10] abbreviates: Rattus norvegicus, po; read-out: Inhibition of APO-Stereotypy ED50.
The mark [11] stands for this setting: Rattus norvegicus, po; read-out: CAR ED50.

For the molecule `Cl.OC(CCCN1CCN(c2ncc(F)cn2)CC1)c1ccc(F)cc1` (racemic) [MJ 14802, 4-[4-[5-Fluoro-2-pyrimidinyl]-1-piperazinyl]-1-(4-fluorophenyl)butanol Hydrochloride], the half-inhibitory concentration (IC50) in [1] was above 1000 nM; on α1 receptor (vs. [^3 H]WB4101), 520 nM; in data set [7] (vs. [^3 H]spiperone, read-out: DA Binding (vs. [^3 H]spip.) IC50), 6400 nM. Moreover, the “activity at cholinergic binding sites” value in data set [1] (in words, Hydrochloride) was “essentially inactive; also recorded: lacks anticholinergic”. The “activity at opiate binding sites” value with opiate binding sites is “essentially inactive”. The median effective dose (ED50) in data set [2] was above 100 mg/kg; in data set [5] (Rattus norvegicus, po, read-out: Inhibition of APO-Stereotypy ED50) it was 33 mg/kg; in data set [6] (Rattus norvegicus, po, read-out: Catalepsy Reversal ED50), 16.9 mg/kg; in data set [8] (Rattus norvegicus, po, read-out: CAR ED50), 26.4 mg/kg; in “Catalepsy”, above 100 mg/kg. Also, the “activity at serotonergic binding sites” value in data set [3] was “essentially inactive”. In the data set on α1 receptor (in words), the α1-adrenergic activity entry was “lacks anticholinergic and α1 -adrenergic activities”. The “activity at α2-adrenergic binding sites” value in data set [4] was “essentially inactive”. For the same molecule, the “duration of action in the inhibition of apomorphine stereotypy” value in data set [5] (rat, in vivo) turned out to be 4 h. Besides, in data set [6] (in words), the “reversal of neuroleptic-induced catalepsy” value is recorded as “reverses neuroleptic-induced catalepsy”. Besides, the dopamine receptor binding result in data set [7] (in words) is on record as “very weak dopamine receptor binding”. The “activity at GABA binding sites” value in the data set on GABA binding sites was “essentially inactive”. In addition, the “duration of action in the inhibition of the CAR” value in [8] (rat, in vivo) was above 7 h. In addition, the catalepsy production entry in “Catalepsy” (in words) was “fails to cause catalepsy”.
For `OC(CCCN1CCN(c2ncc(F)cn2)CC1)c1ccc(F)cc1` (single isomer, unassigned) [(+)-- enantiomer of BMY 14802, (+)--α-(4-Fluorophenyl)-4-(5-fluoro-2-pyrimidinyl)-1-piperazinebutanol Hydrate], in data set [5] (setting [9]), the “inhibition of apomorphine stereotypy, potency relative to racemic material” value was “The converse was true”. In data set [6] (in words), the “reversal of neuroleptic-induced catalepsy, potency relative to racemic material” value is given as “The converse was true”.
Turning to `O.OC(CCCN1CCN(c2ncc(F)cn2)CC1)c1ccc(F)cc1` (single isomer, unassigned) [(-)-- enantiomer, (-)-α-(4-Fluorophenyl)-4-(5-fluoro-2-pyrimidinyl)-1-piperazinebutanol Hydrate], the “inhibition of apomorphine stereotypy, potency relative to racemic material” value in data set [5] (setting [9]) is reported as “more potent than racemic material”. In addition, the “reversal of neuroleptic-induced catalepsy, potency relative to racemic material” value in data set [6] (in words) is reported as “less potent”.
With `CN1CCN(C2=Nc3cc(Cl)ccc3Nc3ccccc32)CC1` [Clozapine, reference compound], the ED50 is 3.5 mg/kg in data set [2], 49.2 mg/kg in [5] (setting [10]), 24 mg/kg in data set [8] (setting [11]) and above 200 mg/kg in the data set “Catalepsy”. Also, the “Catalepsy Reversal ED50” value in data set [6] is on record as “I”.
The matching figures for `CSc1ccc2c(c1)N(CCC1CCCCN1C)c1ccccc1S2` (stereo not shown) [Thioridazine, reference compound]: 2.2 mg/kg, 280 mg/kg, 126 mg/kg, 45.2 mg/kg and “I”.
As for `OC(CCCN1CCN(c2ncccn2)CC1)c1ccc(F)cc1` (stereo not shown) [des-fluoro analog of MJ 14802], the “time after which CAR activity is lost” value in [8] (rat, in vivo) is “lost after three hours”.

The IC50 is the concentration needed to halve the response being measured. One may read the ED50 as the dose at which the effect has come halfway, by size or by number of responders.
